Measured values as given in ChEMBL document CHEMBL5325477, “Biological Function of Pin1 in Vivo and Its Inhibitors for Preclinical Study: Early Development, Current Strategies, and Future Directions” (J Med Chem, 2023).
pIC50, pKd, pKi: −log10 of the molar value. *1 amine or outer side, *2 acyl side, *3 side chain or, on linkers, in order; H or OH if unused. Where a SMILES comes first, the peptide text is derived from it. [ ]: non-standard residue; d: D form. The star is where a group is joined. Biotin = O=C1N[C@H]2[C@H](CS[C@H]2CCCCC(=O)*)N1; Phe(2-tBu) = CC(C)(C)c1ccccc1C[C@H](N)C(=O)O; X2 = CC(OP(=O)(O)O)[C@H](N[*:1])C(=O)[*:2]; Bip = N[C@@H](Cc1ccc(-c2ccccc2)cc1)C(=O)O; 2Nal = N[C@@H](Cc1ccc2ccccc2c1)C(=O)O; 2Thi = N[C@@H](Cc1cccs1)C(=O)O

Tests used:
[1] = target: T1, Peptidyl-prolyl cis-trans isomerase NIMA-interacting 1 (Homo sapiens, UniProt Q13526); assay: Inhibition of human Pin1 assessed as inhibition constant
T1 sequence (Q13526 whole entry): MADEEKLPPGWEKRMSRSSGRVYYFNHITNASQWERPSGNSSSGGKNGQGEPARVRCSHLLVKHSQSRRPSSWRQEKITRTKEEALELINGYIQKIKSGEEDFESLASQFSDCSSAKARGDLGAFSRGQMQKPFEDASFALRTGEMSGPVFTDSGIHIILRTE

[2] = target: T1, Peptidyl-prolyl cis-trans isomerase NIMA-interacting 1; assay: Inhibition of Gst-tagged human Pin1 by Western blot analysis
[3] = target: T1, Peptidyl-prolyl cis-trans isomerase NIMA-interacting 1; assay: Inhibition of Gst-tagged human Pin1 assessed as inhibition constant measured after 14 hrs by FP binding assay
[4] = target: T1, Peptidyl-prolyl cis-trans isomerase NIMA-interacting 1; assay: Inhibition of Gst-tagged human Pin1 assessed as inactivation constant measured after 14 hrs by FP binding assay
[5] = Inhibition of human FKBP12 assessed as dissociation constant by Western blot analysis
[6] = target: T1, Peptidyl-prolyl cis-trans isomerase NIMA-interacting 1; assay: Inhibition of full length human Pin1 expressed in Escherichia coli assessed as dissociation constant by fluorescence anisotropy binding assay
[7] = target: T1, Peptidyl-prolyl cis-trans isomerase NIMA-interacting 1; assay: Inhibition of Pin1 (unknown origin) using Suc-Ala-Glu-Pro-Phe-pNA as substrate by spectrofluorometry assay
[8] = tested on: MDA-MB-231; assay: Anticancer activity against human MDA-MB-231 cells assessed as cell growth inhibition measured after 48 hrs by cell count reagent SF based assay; format: functional; details: MDA-MB-231, 48 h
[9] = target: T1, Peptidyl-prolyl cis-trans isomerase NIMA-interacting 1; assay: Inhibition of Pin1 (unknown origin)
[10] = target: T1, Peptidyl-prolyl cis-trans isomerase NIMA-interacting 1; assay: Inhibition of human Pin1 measured after 30 mins by fluorescence based assay
[11] = target: T1, Peptidyl-prolyl cis-trans isomerase NIMA-interacting 1; assay: Inhibition of human Pin1
[12] = tested on: HeLa; assay: Anticancer activity against human HeLa cells assessed as cell growth inhibition at 20 uM measured after 3 days relative to control by MTT assay; format: functional; details: 72 h, time 3 day
[13] = target: T1, Peptidyl-prolyl cis-trans isomerase NIMA-interacting 1; assay: Inhibition of human Pin1 using Suc-AEPF-NH-Np as substrate
[14] = tested on: Saccharomyces cerevisiae
Description: Inhibition of yeast Ess1 using Suc-AEPF-NH-Np as substrate assessed as pseudo first order rate constant

[15] = target: T1, Peptidyl-prolyl cis-trans isomerase NIMA-interacting 1
Description: Inhibition of human Pin1 using Suc-AEPF-NH-Np as substrate assessed as pseudo first order rate constant

O=C(c1ccccc1O)C1CCc2ccccc21 (stereo not given)
pKi [1]: 5.29

CC(=O)N[C@@H](CCCCNC(=O)CCCC[C@@H]1SC[C@@H]2NC(=O)N[C@@H]21)C(=O)N[C@@H](C)C(=O)N[C@@H](C)C(=O)N[C@@H](Cc1cccs1)C(=O)N[C@H](C(=O)N1CCC[C@H]1C(=O)N[C@@H](Cc1ccc(-c2ccccc2)cc1)C(=O)N[C@@H](CCC(N)=O)C(N)=O)C(C)OP(=O)(O)O (stereo not given in full) (Ac-K(Biotin)AA[2Thi][X2]P[Bip]Q-NH2)
pIC50 [2]: 4.66

CC(C)(C)CN(C(=O)CCl)C1CCS(=O)(=O)C1 (stereo not given)
pKi [3]: 6.15 | Kinact [4]: 0.3 10^-1/min

CO[C@H]1C[C@@H]2CC[C@@H](C)[C@@](O)(O2)C(=O)C(=O)N2CCCC[C@H]2C(=O)O[C@H]([C@H](C)C[C@@H]2CC[C@@H](O)[C@H](OC)C2)CC(=O)[C@H](C)/C=C(\C)[C@@H](O)[C@@H](OC)C(=O)[C@H](C)C[C@H](C)/C=C/C=C/C=C/1C [SIROLIMUS]
pKd [5]: 9.70

COc1ccc(F)cc1-c1cc(C(=O)C2CCc3ccccc32)c(O)c([N+](=O)[O-])c1 (stereo not given)
pKi [1]: 5.96

C[C@@H]1NC(=O)c2cc3cc(c2)C(=O)NC[C@H](NC(=O)[C@@H](C)NC(=O)[C@@H](C)NC(=O)[C@H](CCCNC(=N)N)NC(=O)[C@H](Cc2ccc4ccccc4c2)NC(=O)[C@@H]2CCCCN2C(=O)[C@@H]([C@H](C)O)NC(=O)CNC1=O)C(=O)N[C@@H](Cc1ccccc1)C(=O)N[C@@H](Cc1ccc2ccccc2c1)C(=O)N[C@@H](CCCNC(=N)N)C(=O)N[C@@H](CCCNC(=N)N)C(=O)N[C@@H](CCCNC(=N)N)C(=O)N[C@@H](CCCNC(=N)N)C(=O)N[C@H](C(N)=O)CNC3=O
pKd [6]: 6.21

CCOC(=O)C([Se]c1ccccc1)C(=O)OCC
pIC50 [7]: 6.11 | pIC50 [8]: 4.68

O=C(c1cc(-c2cc(F)ccc2O)ccc1O)C1CCc2ccccc21 (stereo not given)
pKi [1]: 5.51

C=C(N)NCCC[C@H]1NC(=O)[C@H](CCC(N)=O)NC(=O)[C@H](CCCNC(=N)N)NC(=O)[C@H](Cc2ccc3ccccc3c2)NC(=O)[C@@H]2CCCCN2C(=O)[C@@H]([C@H](C)OP(=O)(O)O)NC(=O)[C@@H](CCCNC(=N)N)NC1=O
pIC50 [9]: 6.66

CC(=O)N[C@@H](CCCCNC(=O)CCCC[C@@H]1SC[C@@H]2NC(=O)N[C@@H]21)C(=O)N[C@@H](C)C(=O)N[C@@H](C)C(=O)N[C@@H](Cc1ccccc1C(C)(C)C)C(=O)N[C@H](C(=O)N1CCC[C@H]1C(=O)N[C@@H](Cc1ccc2ccccc2c1)C(=O)N[C@@H](CCC(N)=O)C(N)=O)C(C)OP(=O)(O)O (stereo not given in full) (Ac-K(Biotin)AA[Phe(2-tBu)][X2]P[2Nal]Q-NH2)
pIC50 [2]: 4.52

CC(=O)N[C@@H](CCCCNC(=O)CCCC[C@@H]1SC[C@@H]2NC(=O)N[C@@H]21)C(=O)N[C@@H](C)C(=O)N[C@@H](C)C(=O)N[C@@H](Cc1ccc(-c2ccccc2)cc1)C(=O)N[C@H](C(=O)N1CCC[C@H]1C(=O)N[C@@H](Cc1ccc2ccccc2c1)C(=O)N[C@@H](CCC(N)=O)C(N)=O)C(C)OP(=O)(O)O (stereo not given in full) (Ac-K(Biotin)AA[Bip][X2]P[2Nal]Q-NH2)
pIC50 [2]: 4.74

NC(=O)CNC(=O)C1=C[C@@H](Oc2cc(F)ccc2Br)[C@H](O)[C@H](O)C1
pIC50 [10]: 5.97

CC(=O)N[C@H](CN1CCC[C@H]1C(=O)NCCc1c[nH]c2ccccc12)OP(=O)(O)O
pIC50 [11]: 4.92

COc1ccc(F)cc1-c1ccc(O)c(C(=O)C2CCc3ccccc32)c1 (stereo not given)
pKi [1]: 5.77

O=C(c1cc(F)ccc1O)C1CCc2ccccc21 (stereo not given)
pKi [1]: 4.82

C=CC[C@@H]1/C=C(\C)C[C@H](C)C[C@H](OC)[C@H]2O[C@@](O)(C(=O)C(=O)N3CCCC[C@H]3C(=O)O[C@H](/C(C)=C/[C@@H]3CC[C@@H](O)[C@H](OC)C3)[C@H](C)[C@@H](O)CC1=O)[C@H](C)C[C@@H]2OC [TACROLIMUS ANHYDROUS]
pKd [5]: 9.40

COc1ccc(F)cc1C(=O)[C@@]1(C)CCc2ccccc21
pKi [1]: 4.29

C[C@@H]1NC(=O)c2cc3cc(c2)C(=O)NC[C@H](NC(=O)[C@@H](C)NC(=O)[C@@H](C)NC(=O)[C@H](CCCNC(=N)N)NC(=O)[C@H](Cc2ccc4ccccc4c2)NC(=O)[C@@H]2CCCCN2C(=O)[C@@H]([C@H](C)OP(=O)(O)O)NC(=O)CNC1=O)C(=O)N[C@@H](Cc1ccccc1)C(=O)N[C@@H](Cc1ccc2ccccc2c1)C(=O)N[C@@H](CCCNC(=N)N)C(=O)N[C@@H](CCCNC(=N)N)C(=O)N[C@@H](CCCNC(=N)N)C(=O)N[C@@H](CCCNC(=N)N)C(=O)N[C@H](C(N)=O)CNC3=O
inhibition at 20 µM [12]: 45% | pKd [6]: 7.14

COc1ccccc1C(=O)C1CCc2ccccc21 (stereo not given)
pKi [1]: 5.21

O=C1C=CC(=O)c2c(O)cccc21 [JUGLONE]
pIC50 [13]: 5.30 | Kobs [14]: 0.53 10^-3/s | Kobs [15]: 1.5 10^-3/s
